Reference: ChEMBL document CHEMBL2169839 (J Med Chem, 2012)
Numbering of substitutions follows the chain as printed.

Columns and labels:
[1] = target: T1, Aldo-keto reductase family 1 member C2 (Homo sapiens, UniProt P52895)
T1 sequence (P52895 whole entry): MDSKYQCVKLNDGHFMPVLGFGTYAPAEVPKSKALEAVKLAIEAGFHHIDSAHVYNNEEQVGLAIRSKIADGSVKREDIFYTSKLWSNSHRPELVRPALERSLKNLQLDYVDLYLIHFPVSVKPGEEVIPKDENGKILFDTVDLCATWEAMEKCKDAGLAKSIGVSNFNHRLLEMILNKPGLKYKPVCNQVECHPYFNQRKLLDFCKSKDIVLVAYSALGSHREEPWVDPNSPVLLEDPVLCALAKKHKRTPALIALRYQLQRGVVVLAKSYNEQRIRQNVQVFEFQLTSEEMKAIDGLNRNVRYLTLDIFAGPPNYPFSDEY

[2] = target: T2, Aldo-keto reductase family 1 member C3 (Homo sapiens, UniProt P42330); test: biochemical
T2 sequence (P42330 whole entry): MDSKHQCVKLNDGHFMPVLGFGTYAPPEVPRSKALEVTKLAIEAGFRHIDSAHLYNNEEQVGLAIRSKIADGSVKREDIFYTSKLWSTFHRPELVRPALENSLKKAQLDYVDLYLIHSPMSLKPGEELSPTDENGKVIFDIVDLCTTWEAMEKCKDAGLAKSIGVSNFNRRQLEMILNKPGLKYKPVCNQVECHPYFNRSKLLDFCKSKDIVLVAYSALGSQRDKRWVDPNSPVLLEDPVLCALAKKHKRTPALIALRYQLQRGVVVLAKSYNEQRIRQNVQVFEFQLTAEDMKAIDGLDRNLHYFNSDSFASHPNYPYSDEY

[3] = target: T2, Aldo-keto reductase family 1 member C3; test: Inhibition of AKR1C3 overexpressed in human HCT116 cells assessed as inhibition of PR-104A conversion to hydroxylamine after 2 hrs by LC-MS/MS analysis
[4] = target: T3, Aldo-keto reductase family 1 member C4 (Homo sapiens, UniProt P17516)
T3 sequence (P17516 whole entry): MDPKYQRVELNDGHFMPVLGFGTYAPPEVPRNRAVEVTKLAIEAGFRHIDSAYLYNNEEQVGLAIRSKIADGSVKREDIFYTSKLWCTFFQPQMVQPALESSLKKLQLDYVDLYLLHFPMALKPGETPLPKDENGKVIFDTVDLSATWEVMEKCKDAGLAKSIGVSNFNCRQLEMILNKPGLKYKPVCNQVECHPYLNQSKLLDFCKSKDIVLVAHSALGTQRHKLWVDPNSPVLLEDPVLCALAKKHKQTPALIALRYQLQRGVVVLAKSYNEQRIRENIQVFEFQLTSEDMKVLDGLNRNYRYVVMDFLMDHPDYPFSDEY

[5] = target: T4, Aldo-keto reductase family 1 member C1 (Homo sapiens, UniProt Q04828)
T4 sequence (Q04828 whole entry): T1 sequence (P52895 whole entry) with V38T, H47R, V54L, S87C, M151V, H170R, L172Q

[6] = target: T4, Aldo-keto reductase family 1 member C1; test: Inhibition of human recombinant AKR1C1 expressed in Escherichia coli BL21(DE3) using phenanthrenequinone as substrate by spectrophotometric analysis
[7] = target: T3, Aldo-keto reductase family 1 member C4; test: Inhibition of human recombinant AKR1C4 expressed in Escherichia coli BL21(DE3) using phenanthrenequinone as substrate by spectrophotometric analysis
[8] = target: T2, Aldo-keto reductase family 1 member C3

Structure (SMILES) | IC50 [1] [nM] | IC50 [2] [nM] | IC50 [3] [nM] | IC50 [4] [nM] | IC50 [5] [nM] | Ki [6] [nM] | Ki [7] [nM] | Ki [8] [nM]
O=C(O)c1cccc(S(=O)(=O)N2Cc3ccccc3C2)c1 | > 30000 | 47 | 884 | > 30000 | 3890 |  |  | 
O=C(O)c1cccc(S(=O)(=O)NCCc2ccccc2)c1 | > 30000 | 220 | > 1000 | > 30000 | > 30000 |  |  | 
O=C(O)[C@H]1CCCN(S(=O)(=O)c2ccc3ccccc3c2)C1 | > 3000 | 400 | > 1000 | > 3000 | > 30000 |  |  | 
O=C(O)c1cccc(S(=O)(=O)N2CCc3ccc([N+](=O)[O-])cc3C2)c1 | > 30000 | 17 | 72 | > 30000 | > 30000 |  |  | 
O=C(O)c1cccc(S(=O)(=O)N2CCc3ccc(Cl)cc3C2)c1 | > 30000 | 20 | > 1000 | > 30000 | > 30000 |  |  | 
O=C(O)c1cccc(S(=O)(=O)N2CCc3ccc(Br)cc3C2)c1 | > 30000 | 12 | 20 | > 30000 | > 30000 |  |  | 
O=C(O)c1cccc(S(=O)(=O)N2CCc3ccc(I)cc3C2)c1 | > 30000 | 14 | 45 | > 30000 | > 30000 |  |  | 
O=C(O)c1cccc(S(=O)(=O)N2CCc3cccc(Cl)c3C2)c1 | 12100 | 19 | 28 | > 30000 | 740 |  |  | 
O=C(O)c1cccc(S(=O)(=O)N2CCCc3ccccc32)c1 | > 30000 | 200 | > 1000 | > 30000 | > 30000 |  |  | 
CC1c2ccccc2CCN1S(=O)(=O)c1cccc(C(=O)O)c1 (stereo not drawn) | > 30000 | 27 | 24 | > 30000 | > 30000 |  |  | 
Nc1cccc2c1CCN(S(=O)(=O)c1cccc(C(=O)O)c1)C2 | > 30000 | 53 | 193 | > 30000 | > 30000 |  |  | 
O=C(O)c1cccc(S(=O)(=O)N2CCc3c(cccc3[N+](=O)[O-])C2)c1 | > 30000 | 8.9 | 29 | > 30000 | 24600 |  |  | 
O=C(O)c1cccc(S(=O)(=O)N2CCc3c(Cl)cccc3C2)c1 | 9320 | 11 | 16 | > 30000 | > 30000 |  |  | 
O=C(O)c1cccc(S(=O)(=O)N2CCc3c(I)cccc3C2)c1 | > 30000 | 14 | 20 | > 30000 | > 30000 |  |  | 
O=C(O)c1cccc(S(=O)(=O)N2CCc3cc([N+](=O)[O-])ccc3C2)c1 | > 30000 | 22 | > 1000 | > 30000 | > 30000 |  |  | 
O=C(O)c1cccc(S(=O)(=O)N2CCc3cc(Br)ccc3C2)c1 | > 30000 | 6.1 | 12 | > 30000 | > 30000 |  |  | 
O=C(O)c1cccc(S(=O)(=O)N2CCc3cc(O)ccc3C2)c1 | > 30000 | 27 | > 1000 | > 30000 | > 30000 |  |  | 
O=C(O)c1cccc(S(=O)(=O)N2CC=CCC2)c1 | > 30000 | 390 | > 1000 | > 30000 | > 30000 |  |  | 
O=C(O)c1cccc(S(=O)(=O)N2CCc3sccc3C2)c1 | > 30000 | 25 | 34 | > 30000 | > 30000 |  |  | 
CC/C=C\C[C@H]1C(=O)CC[C@@H]1CC(=O)O [JASMONIC ACID] |  |  |  |  |  | 106000 | 37000 | 162000

Other lines, results leading:

IC50 [1] [nM] | IC50 [2] [nM] | IC50 [3] [nM] | IC50 [4] [nM] | IC50 [5] [nM] | Ki [6] [nM] | Ki [7] [nM] | Ki [8] [nM] | Structure (SMILES)
> 30000 | 13 | 27 | > 30000 | 20300 |  |  |  | O=C(O)c1cccc(S(=O)(=O)N2CCc3ccccc3C2)c1
> 30000 | 21 | 24 | > 30000 | > 30000 |  |  |  | O=C(O)c1cccc(S(=O)(=O)N2CCc3ccc(F)cc3C2)c1
> 30000 | 34 | 266 | > 30000 | > 30000 |  |  |  | N#Cc1ccc2c(c1)CN(S(=O)(=O)c1cccc(C(=O)O)c1)CC2
> 30000 | 160 | > 1000 | > 30000 | > 30000 |  |  |  | COc1cc2c(cc1OC)CN(S(=O)(=O)c1cccc(C(=O)O)c1)CC2
> 30000 | 68 | 407 | > 30000 | 830 |  |  |  | O=C(O)c1cn(S(=O)(=O)c2ccc(Br)cc2)c2ccccc12
> 30000 | 8.6 | 176 | > 30000 | > 30000 |  |  |  | CC1Cc2ccccc2CN1S(=O)(=O)c1cccc(C(=O)O)c1 (stereo not drawn)
> 30000 | 11 | 14 | > 30000 | > 30000 |  |  |  | O=C(O)c1cccc(S(=O)(=O)N2CCc3c(Br)cccc3C2)c1
> 30000 | 16 | 453 | > 30000 | 25600 |  |  |  | O=C(O)c1cccc(S(=O)(=O)N2CCc3c(O)cccc3C2)c1
> 30000 | 16 | 39 | > 30000 | > 30000 |  |  |  | COc1cccc2c1CCN(S(=O)(=O)c1cccc(C(=O)O)c1)C2
> 30000 | 17 | 52 | > 30000 | > 30000 |  |  |  | Cc1ccc2c(c1)CCN(S(=O)(=O)c1cccc(C(=O)O)c1)C2
> 30000 | 8.7 | 39 | > 30000 | 7480 |  |  |  | O=C(O)c1cccc(S(=O)(=O)N2CCc3cc(Cl)ccc3C2)c1
> 30000 | 38 | 390 | > 30000 | > 30000 |  |  |  | COc1ccc2c(c1)CCN(S(=O)(=O)c1cccc(C(=O)O)c1)C2
> 30000 | 13 | 29 | > 30000 | > 30000 |  |  |  | Cc1ccc2c(c1)CN(S(=O)(=O)c1cccc(C(=O)O)c1)CC2
> 30000 | 210 | > 1000 | > 30000 | 6610 |  |  |  | O=C(O)c1cccc(S(=O)(=O)N2CCc3ccccc32)c1
